Entries after “also recorded” stand apart in the source; their conditions may differ. Where a SMILES comes first, the peptide text is derived from it. Where no end group is shown, it is not given here. [ ]: non-standard residue; d: D form. ξ: configuration not given here. ξHyp = O=C(O)C1CC(O)CN1
Tests used:
[1] = system: Human umbilical vein endothelial cells (HUVEC); experiment: FGF2-stimulated endothelial cell tube formation on Matrigel matrix; assay type: cell-based; settings: for Inhibition of FGF2-stimulated EC tube formation, in words: in vitro, qualitative ranking; for Cell Tube Formation (area) / Cell Tube Formation (length): HUVEC on Matrigel, FGF2 100 ng/mL, peptide 0.015 μmol added with FGF2, overnight; for Cell Tube Formation (length): length/area; for % inhibition cell tube formation (area) / % inhibition cell tube formation (length): peptide 0.015 μmol, FGF2-stimulated HUVEC
Protocol: Differentiation by endothelial cells was examined using a method developed by Grant et al. (In Vitro Cell Dev. Biol. 27A:327-336 (1991)). Matrigel® matrix, phenol-red free (commercially available from Becton Dickinson, Bedford, Mass.) was thawed overnight at 4° C. Using cold pipette tips, 3.0 mg/well of Matrigel® matrix was placed in a cold twenty-four-multiwell plate (Falcon). Matrigel® matrix was allowed to polymerize during incubation at 37° C. for 30 min. Human umbilical vein endothelial cells (HUVEC) were maintained at 37° C. with 5% CO2 and 95% humidity in endothelial cell growth medium with 2% fetal bovine serum (EGM). Tube assay was performed in endothelial cell basal medium (EBM) supplemented with 0.5% bovine serum albumin (BSA) and 1:100 diluted Insulin-Transferrin-Selenium-G supplement (I-T-Se, 100×). HUVEC were trypsinized and centrifuged and subsequently, washed twice in phosphate buffered saline (PBS). After counting, cell density was adjusted to 35,000 cells/mL. At final concentration of 35,000 cells/mL/well were treated with recombinant human fibroblast growth factor basic (FGF2) at 100 ng/mL and peptides (see below) dissolved in EBM medium at to a concentration of 0.015 μmol. Treated cells were incubated overnight at 37° C. with 5% CO2 and 95% humidity to allow cell attachment. Subsequently, the medium was aspirated and cells were fixed and stained using a modified HEMA-3 stain kit. Digital images of microtiter well sections were collected using a DKC5000 3-CCD color video camera system (Toshiba America, New York, N.Y.) and analyzed with the Image-Pro Plus software (Media Cybernetics, Silver Spring, Md.). The area and major axis length of stained cells having a tubular morphology on the Matrigel® matrix surface (Becton Dickinson, Bedford, Pa.) counted from 5 images/well.

[2] = system: FGF2-induced angiogenesis in the chorioallantoic membrane (CAM); experiment: FGF2-induced neovascularization on the chick chorioallantoic membrane (CAM), branch point count; assay type: in vivo; settings: for % Inhibition of branch point formation: 16 μg, FGF2-stimulated CAM; for Average # of Branch Points: FGF2 filter disk on CAM, peptide 16 μg topically, 48 h
Protocol: In vivo neovascularization was examined by the method previously described by Auerbach et al. (J. Dev. Biol. 41:391-394 (1974)). Ten-day old embryos were purchased from Spafas, Inc. (Preston, Conn.) and were incubated at 37° C. with 55% relative humidity. In the dark with the help of a candling lamp a small hole was punctured in the shell concealing the air sac with a hypodermic needle. A second hole was punctured in the shell on the broadside of the egg directly over an […] portion of the embryonic membrane, as observed during candling. A false air sac was created beneath the second hole by the application of negative pressure to the first hole, which caused the chorioallantoic membrane (CAM) to separate from the shell. A window, approximately 1.0 cm^2, was cut in the shell over the dropped CAM with the use of a small crafts grinding wheel (Dremel, Division of Emerson Electric Company Racine, WI) which allowed direct access to the underlying CAM. Filter disks of #1 filter paper (Whatman International, United Kingdom) were soaked in 3 mg/mL cortisone acetate (Sigma, St. Louis, Mo.) in a solution of 95% ethanol and water and subsequently air dried under sterile conditions. FGF2 (Life Technologies, Gaithersburg, Md.) was used to grow vessels on the CAMs of 10-d old chick embryos. Sterile filter disks adsorbed with FGF2 dissolved in PBS at 1 μg/mL were placed on growing CAMs. At 24 h, test compounds or control vehicle was added directly to CAMs topically.
CAM tissue directly beneath FGF2-saturated filter disk was resected from embryos treated 48 h prior with compound or control. Tissues were washed three times with PBS. Sections were placed in a 35-mm petri dish (Nalge Nunc, Rochester, N.Y.) and examined under a SV6 stereomicroscope (Karl Zeiss, Thornwood, N.Y.) at 50× magnification. Digital images of CAM sections adjacent to filters were collected using a 3-CCD color video camera system (Toshiba America, New York, N.Y.) and analyzed with the Image-Pro Plus software (Media Cybernetics, Silver Spring, Md.) and can be seen in FIG. 2. Table 3 contains the number of vessel branch points contained in a circular region equal to the area of a filter disk counted for each section. Percent inhibition data is expressed as the quotient of the experimental value minus the negative control value divided by the difference between the positive control value and the negative control value.

[3] = system: TSU-Pr (human prostrate) tumor; settings: 45 μg, after 7 d
Protocol: Ten million tumor cells were placed on the surface of each CAM (7-d old embryo) and were cultured for one week. The resulting tumors were excised and cut into 50 mg fragments. […] Each treatment group incorporated at least ten tumors per experiment. Representative tumors were photographed at 10× magnification. Tumors were then excised from the egg and tumor weights were determined for each tumor. Data is presented as mean tumor weight per treatment group (±standard error of the mean). Statistical analysis was performed using Student's t-test.

human melanoma cells [4] = settings: cited from earlier work
human melanoma cells [5] = settings: cited from earlier work; remark: listed apart in the source

Compound	Inhibition of FGF2-stimulated EC tube formation, in words [1]	% Inhibition of Branch Points in FGF2-Induced CAM Assay ([2]; 1 μg/CAM)	% Inhibition of Branch Points in FGF2-Induced CAM Assay ([2]; 5 μg/CAM)	% Inhibition of Branch Points in FGF2-Induced CAM Assay ([2]; 15 μg/CAM)	% inhibition cell tube formation (area) [1]	% inhibition cell tube formation (length) [1]	further results
CC(=O)N[C@@H](CO)C(=O)N[C@@H](CC(N)=O)C(=O)N1CC(O)CC1C(N)=O (stereo partly drawn) [SN-t4Hyp] (Ac-Ser-Asn-[ξHyp]-NH2)	most potent	39% +/− 11	60% +/− 7	71% +/− 8	–	–	–
CC(=O)N[C@@H](CO)C(=O)N[C@@H](CC(N)=O)C(=O)N[C@H](CO)C(N)=O [SNs] (Ac-Ser-Asn-[dS]-NH2)	most potent	62% +/− 7	78% +/− 6	69% +/− 8	–	–	–
CC(=O)NC(CO)C(=O)NC(CC(N)=O)C(=O)NC(CO)C(N)=O (stereo not drawn) [acetyl-SNS-carboxamide, acetyl-Ser-Asn-Ser-carboxamide] (Ac-Ser-Asn-Ser-NH2; configuration not given here)	very potent inhibitor; also recorded: more potent inhibitor	–	–	–	97% +/− 8	84% +/− 9	Cell Tube Formation (area) [1]: 1.1011 +/− 0.12 10^4 square microns; Cell Tube Formation (length) [1]: 47.5267 +/− 4.31 mm/mm^2; % Inhibition of branch point formation [2]: 100.23%; % Inhibition of branch point formation ([2]; listed as acetyl-Ser-Asn-Ser-carboxamide): 100%; Average # of Branch Points [2]: 91.60; % ave inhibition of TSU-Pr tumor growth (weight) ([3]; injected into tumors): 111%; Tumors showing significant weight shrinkage ([3]; ten tumors injected): Six tumors out of the ten
CNYYSNSYSFWLASLNPER [SEQ ID NO:1, peptide of residues 185-203 of the NC1 domain of the α3-chain of collagen type IV]	–	–	–	–	–	–	Promotion of adhesion of human melanoma cells over controls (human melanoma cells [4]): 50-60%; Inhibition of proliferation of human melanoma cells (human melanoma cells [5]): 40%
FGF2: recombinant human fibroblast growth factor basic, angiogenic stimulus [reference compound]	–	–	–	–	–	–	Cell Tube Formation (area) [1]: 2.2501 +/− 0.28 10^4 square microns; Cell Tube Formation (length) [1]: 79.8272 +/− 8.66 mm/mm^2; Average # of Branch Points [2]: 263.88
Ser-Gln-Ser [SQS]	most potent	101% +/− 7	121% +/− 6	82% +/− 7	–	–	–
acetyl-Cys-Asn-Tyr-Tyr-Ser-Asn-Ser-Tyr-Ser-Phe-Trp-Leu (Ac-CNYYSNSYSFWL) [SEQ ID NO: 4, As defined in b173]	–	–	–	–	71% +/− 6	54% +/− 3	–
acetyl-Ser-Asn-Ser-Tyr-Ser-Phe-Trp-Leu (Ac-SNSYSFWL) [SEQ ID NO: 3, As defined in b173]	–	–	–	–	75% +/− 7	65% +/− 3	–

— patent US6815426B2, “Angiogenesis-inhibitory tripeptides, compositions and their methods of use” (E. I. du Pont de Nemours and Company, priority 2001, dated 2004)
